# Literature values, collected in patent US20080147019A1, “Antimicrobial component system containing metallic nanoparticles and chitosan and/or its derivatives” (Kimberly-Clark Worldwide, Inc., priority 2006, published 2008).
# Tested on: bacteria (gram+ and gram−), as well as fungi (molds and yeasts)
# Conditions: very low doses, as low as about
compound,measurement,value
"[Ag+] [Ionic silver, Ionic silver (Ag+)]",dose at which antimicrobial (oligodynamic),0.001-0.05 ppm
